Counter-ions that a name gives are not always drawn. Like-named read-outs stand apart in the source and are kept apart here.
Key:
human IDO1 = human IDO1 (Homo sapiens (Human), UniProt P14902); experiment: Inhibition activity on human IDO1 (enzyme assay, absorbance at 480 nm); type: biochemical; details: purified recombinant human IDO1, 1 hour at 37° C.; read-out: IC50 for inhibiting the activity of human IDO1
Protocol: Assay for Determining the Inhibition Activity of the Present Compounds on Human IDO1
Human IDO1 activity was tested in vitro by the following method.
This method is used to determine the inhibition effect of the compounds of the present invention on the activity of human IDO1.
The human IDO1 gene was transferred to Pet30a plasmid by gene cloning, and then transferred to competent Escherichia coli Rosseta. The IDO1 gene was scaled-up by culturing in liquid LB (Luria-Bertani) medium [which was prepared per liter according to “Molecular Cloning A Laboratory Manual” (J. Sambrook, D. W. Russell)]). The bacteria were collected and lysed by ultrasonic waves. The purified IDO1 was obtained by eluting from a column.
For testing, 24 μL of enzyme (IDO1) was diluted 100 times with 50 mM KPB to 2400 μL. The concentration of the enzyme solution was 2.6 ng/μL. A 96 well reaction plate (AXYGEN, PCR-96-FLT-C) (hereinafter referred to as the “reaction plate”) was added with the enzyme solution at 24 μL/well. The blank well was added with 24 μL of KPB [Preparation of KPB buffer (50 mM): 6.805 g of KH2PO4 was weighed using an analytical balance, and placed into a 1000 mL beaker, deionized water was added with a measuring cylinder to 900 ml, the pH was adjusted to 6.5 by 1M KOH, then the mixture was introduced into a 1 L measuring cylinder, and water was added to 1 L. It was stored at 4° C.]. Then, 1 μL of a compound or DMSO was added into the corresponding wells in the reaction plate. Preparation of solution A: 200 μL of 500 mM L-sodium ascorbate were added with 1050 μL of KPB, then the mixture was mixed uniformly for 3 seconds at the maximum speed in a turbine mixer. Solution B: 100 μL of 10 mM tryptophan were added with 100 μL of 100,000 unit/mL catalase, 5 μL of 10 mM methylene blue, and 1050 μL of KPB successively, then the mixture was mixed uniformly for 3 seconds at the maximum speed in a turbine mixer. Then, 1200 μL of solution A and 1200 μL of solution B were taken and mixed uniformly for 3 seconds at the maximum speed in a turbine mixer. The mixture was added to the reaction plate at 24 μL/well. The reaction plate was placed in a plate centrifuge and centrifuged for 15 seconds at the maximum speed, so that the reaction liquids converged to the bottom. The reaction mixture was mixed uniformly for 30 seconds on a shaker, and incubated for 1 hour at 37° C. in a constant temperature incubator. In the reaction plate, 30% (W/V) trichloroacetic acid was added at 10 μL/well, then the mixture was incubated for 15 minutes at 65° C. in an incubator. The reaction plate was centrifuged in a centrifuge for 5 minutes at 4700 RPM at room temperature. […] Then, 2% (W/V) 4-(dimethylamino)benzaldehyde/glacial acetic acid solution was added at 40 μL/well, and the mixture was mixed uniformly for 1 minute on a shaker at the maximum speed. After incubation for 2 minutes at room temperature, the absorbance at 480 nm was read on a Synergy HT (BIOTEK) reader.
The inhibition activity of the compounds of the present invention on human IDO1 was tested by the assay described above.

human TDO = human TDO (Homo sapiens (Human), UniProt P48775); experiment: Inhibition activity on human TDO (tryptophan 2,3-dioxygenase) (enzyme assay, absorbance at 480 nm); type: biochemical; details: read-out: IC50 for inhibiting the activity of human TDO
Protocol: Assay for Determining the Inhibition activity of the Compounds of the Present Invention on Human TDO (tryptophan 2,3-dioxygenase)
Human TDO activity was tested in vitro by the following method.
This method is used to determine the inhibition effect of the compounds of the present invention on the activity of human TDO.
Plasmids constructed with the human TDO gene were transferred to competent Escherichia coli Rosseta. The TDO gene was scaled-up by culturing in liquid LB (Luria-Bertani) medium [which was prepared per liter according to “Molecular Cloning A Laboratory Manual” (J. Sambrook, D. W. Russell)]). The bacteria were collected and lysed by ultrasonic waves. The purified TDO was obtained by eluting from a column.
For testing, 24 μL of enzyme (TDO) was diluted 100 times with 50 mM KPB to 2400 μL. The concentration of the enzyme solution was 2.6 ng/μL. A 96 well reaction plate (AXYGEN, PCR-96-FLT-C) (hereinafter referred to as the “reaction plate”) was added with the enzyme solution at 24 μL/well. The blank well was added with 24 μL of KPB [Preparation of KPB buffer (50 mM): 6.805 g of KH2PO4 was weighed using an analytical balance, and placed into a 1000 mL beaker, deionized water was added with a measuring cylinder to 900 mL, the pH was adjusted to 6.5 by 1M KOH, then the mixture was introduced into a 1 L measuring cylinder, and water was added to 1 L. It was stored at 4° C.]. Then, 1 μL of a compound or DMSO was added into the corresponding wells in the reaction plate. Preparation of solution A: 200 μL of 500 mM L-sodium ascorbate was added with 1050 μL of KPB, then the mixture was mixed uniformly for 3 seconds at the maximum speed in a turbine mixer. Solution B: 100 μL of 10 mM tryptophan was added with 100 μL of 100,000 unit/ml catalase, 5 μL of 10 mM methylene blue, and 1050 μL of KPB successively, then the mixture was mixed uniformly for 3 seconds at the maximum speed in a turbine mixer. Then, 1200 μL of solution A and 1200 μL of solution B were taken and mixed uniformly for 3 seconds at the maximum speed in a turbine mixer. The mixture was added to the reaction plate at 24 μL/well. The reaction plate was placed in a plate centrifuge and centrifuged for 15 seconds at the maximum speed, so that the reaction liquids converged to the bottom. The reaction mixture was mixed uniformly for 30 seconds on a shaker, and incubated for 1 hour at 37° C. in a constant temperature incubator. In the reaction plate, 30% (W/V) trichloroacetic acid was added at 10 μL/well, then the mixture was incubated for 15 minutes at 65° C. in a incubator. The reaction plate was centrifuged in a centrifuge for 5 minutes at 4700 RPM at room temperature. […] Then, 2% (W/V) 4-(dimethylamino)benzaldehyde/glacial acetic acid solution was added at 40 μL/well, then the mixture was mixed uniformly for 1 minute on a shaker at the maximum speed. After incubation for 2 minutes at room temperature, the absorbance at 480 nm was read on a Synergy HT Reader.
The inhibition activity of the compounds of the present invention on human TDO was tested by the assay described above.

human TDO, sequence (P48775 whole entry): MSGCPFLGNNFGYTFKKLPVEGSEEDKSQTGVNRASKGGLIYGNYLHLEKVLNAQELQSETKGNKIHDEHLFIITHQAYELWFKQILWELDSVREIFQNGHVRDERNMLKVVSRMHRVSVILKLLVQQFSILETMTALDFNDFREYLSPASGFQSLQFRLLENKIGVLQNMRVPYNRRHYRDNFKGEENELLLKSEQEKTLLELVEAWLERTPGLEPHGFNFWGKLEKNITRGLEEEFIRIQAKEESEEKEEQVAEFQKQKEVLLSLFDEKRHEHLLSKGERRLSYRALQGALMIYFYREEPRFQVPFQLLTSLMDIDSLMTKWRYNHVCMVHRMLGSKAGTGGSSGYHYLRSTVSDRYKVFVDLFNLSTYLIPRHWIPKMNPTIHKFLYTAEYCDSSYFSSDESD
human IDO1, sequence (P14902 whole entry): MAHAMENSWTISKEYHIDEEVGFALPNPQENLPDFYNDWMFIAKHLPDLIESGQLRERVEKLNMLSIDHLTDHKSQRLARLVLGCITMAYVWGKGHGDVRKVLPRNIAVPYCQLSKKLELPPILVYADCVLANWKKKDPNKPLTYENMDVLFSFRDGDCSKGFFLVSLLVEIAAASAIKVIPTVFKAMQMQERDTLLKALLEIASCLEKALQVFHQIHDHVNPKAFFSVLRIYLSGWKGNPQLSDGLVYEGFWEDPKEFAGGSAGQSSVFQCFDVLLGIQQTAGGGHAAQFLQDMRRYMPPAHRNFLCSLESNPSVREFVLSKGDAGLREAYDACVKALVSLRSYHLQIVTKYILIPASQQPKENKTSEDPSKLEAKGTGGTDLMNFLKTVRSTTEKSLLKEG

| SMILES | IC50 (human IDO1) [nM] | IC50 (human TDO) [nM] | IC50 (human TDO; purified recombinant human TDO, 1 hour at 37° C.) [nM] |
| --- | --- | --- | --- |
| Fc1cccc(N2CCC(C3c4c(F)cccc4-c4cncn43)CC2)c1 (stereo not shown) [Example 3, 6-fluoro-5-(1-(3-fluorophenyl)piperidin-4-yl)-5H-imidazo[5,1-a]isoindole trifluoroacetate] | 71.7 | 371 |  |
| OCCn1cc(-c2ccc(N3CCC([C@H]4c5c(F)cccc5-c5cncn54)CC3)cc2)cn1 [Example 41, (S)-2-(4-(4-(4-(6-fluoro-5H-imidazo[5,1-a]isoindol-5-yl)piperidin-1-yl)phenyl)-1H-pyrazol-1-yl)ethanol] | 9.22 |  | 42 |
